The source of these data is US10017501B2, “Benzimidazole derivatives as bromodomain inhibitors” (Gilead Sciences, Inc., priority 2013, dated 2018).

Structures are written as SMILES.

The subject of one assay is MT-4 cells. Description: MT-4 proliferation assay. In kind it is cell-based, human. The following applies: Homo sapiens, MT4, 120 h, read-out: MT4 Assay (EC50, nM). As for the experimental part:
MT-4 Proliferation Assay:
Compounds were tested in a standardized high-throughput 384-well assay format. Each compound was serially diluted 3-fold in 100% DMSO in polypropylene 384-well plates using a Biomek FX Workstation, and 0.4 μL compound added to an assay plate containing 40 μL RPMI media. Compounds were arranged in a horizontal pattern, with 10 concentrations per compound, and 8 compounds added per plate. Due to low DMSO tolerability, the final DMSO concentration never exceeded 0.5% (v/v). Each assay plate contained 10 μM Puromycin and 0.5% DMSO in RPMI-1640 as positive and negative controls respectively. MT-4 cells (HTLV-1 transformed, human T lymphoblastoid cells, NIH Aids Reagent program) were added in volumes of 35 μL per well and 2,000 cells per well using a Biotek uFlow Workstation (Biotek, Winooski, Vt.), and the plates subsequently incubated for 5 days at 37° C. in an incubator set at 5% CO2 and 90% humidity.
After 5 days, 22 μL Cell Titer Glo (Promega) was added to the assay plates with a Biotek uFlow Workstation. Plates were subsequently placed on a Perkin Elmer Envision Plate Reader for 5 minutes before the luminescence signal was read.
For the compound `Cc1noc(C)c1-c1cc(S(=O)(=O)NC2CCCC2)c2nc([S+](C)[O-])[nH]c2c1` (stereo not shown) [Compound 1020-5, N-Cyclopentyl-6-(3,5-dimethylisoxazol-4-yl)-2-(methylsulfinyl)-1H-benzo[d]imidazole-4-sulfonamide], the EC50 turned out to be 329 nM.

Still in this assay, the particulars now being: Homo sapiens, MT4, 120 h; Table 1; 5 days, Cell Titer Glo; read-out: MT4 Assay (EC50).
For `Cc1noc(C)c1-c1cc(S(=O)(=O)NC2CCCC2)c2nc(NCC3CC3)[nH]c2c1` [Compound 1020-1, N-Cyclopentyl-2-(cyclopropylmethylamino)-6-(3,5-dimethylisoxazol-4-yl)-1H-benzo[d]imidazole-4-sulfonamide], the EC50 came out at 193 nM.

In the case of `CSc1nc2c(S(=O)(=O)NC3CCCC3)cc(-c3c(C)noc3C)cc2[nH]1` [Compound 1020-4, N-Cyclopentyl-6-(3,5-dimethylisoxazol-4-yl)-2-(methylthio)-1H-benzo[d]imidazole-4-sulfonamide], the EC50 worked out at 192 nM. `Cc1cnn(C)c1-c1cc(-c2c(C)noc2C)cc2nc(C3CC3)[nH]c12` [Compound 1020-12, 4-(2-Cyclopropyl-7-(1,4-dimethyl-1H-pyrazol-5-yl)-1H-benzo[d]imidazol-5-yl)-3,5-dimethylisoxazole]: the half-maximal effective concentration (EC50) turned out to be 21.3 nM. In the case of `Cc1noc(C)c1-c1cc(-c2cccnc2-c2ccccc2)c2nc(C3CC3)[nH]c2c1` [Compound 1020-19, 4-(2-Cyclopropyl-4-(2-phenylpyridin-3-yl)-1H-benzo[d]imidazol-6-yl)-3,5-dimethylisoxazole], the EC50 worked out at 24.4 nM. Regarding `CC/C=C(\CC)c1cc(-c2c(C)noc2C)cc2nc(C3CC3)[nH]c12` [Compound 1020-28, (E)-4-(2-Cyclopropyl-4-(hex-3-en-3-yl)-1H-benzo[d]imidazol-6-yl)-3,5-dimethylisoxazole], the EC50 worked out at 51.6 nM.

Take `Cc1noc(C)c1-c1cc(/C=C/c2ccccc2)c2[nH]c(C3CC3)nc2c1` [Compound 1020-37, (E)-4-(2-cyclopropyl-4-styryl-1H-benzo[d]imidazol-6-yl)-3,5-dimethylisoxazole]: the EC50 stood at 518 nM. Consider `Cc1noc(C)c1-c1cc(C(C)c2ccc(F)cc2)c2[nH]c(C3CC3)nc2c1` (stereo not shown) [Compound 1020-44, 4-(2-Cyclopropyl-4-(1-(4-fluorophenyl)ethyl)-1H-benzo[d]imidazol-6-yl)-3,5-dimethylisoxazole], for which the EC50 came to 86.1 nM. Consider `Cc1noc(C)c1-c1cc(NC2CCCC2)c2nc(C3CC3)[nH]c2c1` [Compound 1020-50, N-Cyclopentyl-2-cyclopropyl-6-(3,5-dimethylisoxazol-4-yl)-1H-benzo[d]imidazol-4-amine], for which the EC50 stood at 353 nM. On to `Cc1ccnc(C)c1-c1cc(-c2c(C)noc2C)cc2nc(C3CC3)[nH]c12` [Compound 1020-57, 4-(2-Cyclopropyl-7-(2,4-dimethylpyridin-3-yl)-1H-benzo[d]imidazol-5-yl)-3,5-dimethylisoxazole], for which the EC50 was determined as 13.6 nM. Same read-out and setting: the result for `Cc1n[nH]c(C)c1-c1cc(-c2c(C)noc2C)cc2nc(C3CC3)n(C)c12` [Compound 1020-72, 4-(2-cyclopropyl-7-(3,5-dimethyl-1H-pyrazol-4-yl)-1-methyl-1H-benzo[d]imidazol-5-yl)-3,5-dimethylisoxazole] reads 6.5 nM; that for `Cc1ccc2ncccc2c1-c1cc(-c2c(C)noc2C)cc2nc(C3CC3)n(C)c12` [Compound 1020-74, 4-(2-Cyclopropyl-1-methyl-7-(6-methylquinolin-5-yl)-1H-benzo[d]imidazol-5-yl)-3,5-dimethylisoxazole], 15.3 nM. For `Cc1n[nH]c(C)c1-c1cc(-c2c(C)noc2C)cc2[nH]c(C3CCC3)nc12` [Compound 1020-75, 4-(2-Cyclobutyl-4-(3,5-dimethyl-1H-pyrazol-4-yl)-1H-benzo[d]imidazol-6-yl)-3,5-dimethylisoxazole], the EC50 was 18.4 nM. As to `Cc1nc2cc(-c3c(C)noc3C)cc(-c3c(C)n[nH]c3C)c2[nH]1` [Compound 1020-77, 4-(7-(3,5-Dimethyl-1H-pyrazol-4-yl)-2-methyl-1H-benzo[d]imidazol-5-yl)-3,5-dimethylisoxazole], the EC50 is 39.4 nM. For the compound `Cc1n[nH]c(C)c1-c1cc(-c2c(C)noc2C)cc2nc(C3CC3(F)F)[nH]c12` (stereo not shown) [Compound 1020-78, 4-(2-(2,2-Difluorocyclopropyl)-7-(3,5-dimethyl-1H-pyrazol-4-yl)-1H-benzo[d]imidazol-5-yl)-3,5-dimethylisoxazole], the EC50 came to 25.7 nM. Still for that read-out and setting: the result for `Cc1n[nH]c(C)c1-c1cc(-c2c(C)noc2C)cc2[nH]c(NCC3CC3)nc12` [Compound 1020-79, N-(Cyclopropylmethyl)-4-(3,5-dimethyl-1H-pyrazol-4-yl)-6-(3,5-dimethylisoxazol-4-yl)-1H-benzo[d]imidazol-2-amine] reads 33.8 nM; that for `Cc1n[nH]c(C)c1-c1cc(-c2c(C)noc2C)cc2[nH]c(NC3CC3)nc12` [Compound 1020-81, N-Cyclopropyl-4-(3,5-dimethyl-1H-pyrazol-4-yl)-6-(3,5-dimethylisoxazol-4-yl)-1H-benzo[d]imidazol-2-amine], 7.6 nM.

As to `Cc1ccnc(C)c1-c1cc(-c2c(C)noc2C)cc2[nH]cnc12` [Compound 1020-84, 4-(4-(2,4-Dimethylpyridin-3-yl)-1H-benzo[d]imidazol-6-yl)-3,5-dimethylisoxazole], the EC50 came to 236 nM. Turning to `Cc1ccc2ncccc2c1-c1cc(-c2c(C)noc2C)cc2[nH]c(-c3cnn(C)c3)nc12` [Compound 1020-88, 3,5-Dimethyl-4-(2-(1-methyl-1H-pyrazol-4-yl)-4-(6-methylquinolin-5-yl)-1H-benzo[d]imidazol-6-yl)isoxazole], the EC50 amounted to 45.2 nM.

`Cc1ccc2ncccc2c1-c1cc(-c2c(C)noc2C)cc2[nH]c(C(O)CCO)nc12` (stereo not shown) [Compound 1020-89, 1-(6-(3,5-dimethylisoxazol-4-yl)-4-(6-methylquinolin-5-yl)-1H-benzo[d]imidazol-2-yl)propane-1,3-diol]: the EC50 stood at 104 nM.

As to `COc1nc2c(-c3c(C)ccc4ncccc34)cc(-c3c(C)noc3C)cc2[nH]1` [Compound 1020-90, 4-(2-methoxy-4-(6-methylquinolin-5-yl)-1H-benzo[d]imidazol-6-yl)-3,5-dimethylisoxazole], the EC50 is 25 nM.

Consider `Cc1ccc2ncccc2c1-c1cc(-c2c(C)noc2C)cc2[nH]c(C(F)(F)F)nc12` [Compound 1020-92, 3,5-Dimethyl-4-(4-(6-methylquinolin-5-yl)-2-(trifluoromethyl)-1H-benzo[d]imidazol-6-yl)isoxazole], for which the EC50 came to 73.1 nM.

On to `Cc1n[nH]c(C)c1-c1cc(-c2c(C)noc2C)cc2nc(N)[nH]c12` [Compound 1020-96, 4-(3,5-Dimethyl-1H-pyrazol-4-yl)-6-(3,5-dimethylisoxazol-4-yl)-1H-benzo[d]imidazol-2-amine], for which the EC50 came to 318 nM. On to `Cc1noc(C)c1-c1cc(C(O)(c2ccccc2)c2ccccc2)c2nc(C3CC3)[nH]c2c1` [Compound 1020-102, (2-Cyclopropyl-6-(3,5-dimethylisoxazol-4-yl)-1H-benzo[d]imidazol-4-yl)diphenylmethanol], for which the EC50 stood at 49.7 nM.

`CCC(CC)c1cc(-c2c(C)noc2C)cc2[nH]c(C3CC3)nc12` [Compound 1020-120, 4-(2-Cyclopropyl-4-(pentan-3-yl)-1H-benzo[d]imidazol-6-yl)-3,5-dimethylisoxazole]: the EC50 came out at 48.8 nM. In the case of `Cc1noc(C)c1-c1cc(C(O)C2CCCC2)c2nc(C3CC3)[nH]c2c1` (stereo not shown) [Compound 1020-121, Cyclopentyl(2-cyclopropyl-6-(3,5-dimethylisoxazol-4-yl)-1H-benzo[d]imidazol-4-yl)methanol], the EC50 was 42.8 nM. For the compound `CCC(O)(CC)c1cc(-c2c(C)noc2C)cc2c1nc(C1CC1)n2C` [Compound 1020-132, 3-(2-Cyclopropyl-6-(3,5-dimethylisoxazol-4-yl)-1-methyl-1H-benzo[d]imidazol-4-yl)pentan-3-ol], the EC50 turned out to be 544 nM. As for `Cc1noc(C)c1-c1cc(N2C(=O)CCC2C)c2nc(C3CC3)[nH]c2c1` (stereo not shown) [Compound 1020-136, 1-(2-Cyclopropyl-6-(3,5-dimethylisoxazol-4-yl)-1H-benzo[d]imidazol-4-yl)-5-methylpyrrolidin-2-one], the EC50 came to 335 nM. On to `CCC1CCC(=O)N1c1cc(-c2c(C)noc2C)cc2[nH]c(C3CC3)nc12` (stereo not shown) [Compound 1020-137, 1-(2-Cyclopropyl-6-(3,5-dimethylisoxazol-4-yl)-1H-benzo[d]imidazol-4-yl)-5-ethylpyrrolidin-2-one], for which the EC50 turned out to be 113 nM. On to `Cc1noc(C)c1-c1cc(S(=O)(=O)NC2CCCC2)c2nc(Cc3ccccc3)[nH]c2c1` [Compound 1020-141, 2-Benzyl-N-cyclopentyl-6-(3,5-dimethylisoxazol-4-yl)-1H-benzo[d]imidazole-4-sulfonamide], for which the EC50 was found to be 887 nM.

`Cc1noc(C)c1-c1cc(S(=O)(=O)NC2CCCC2)c2nc(NCC(F)(F)F)[nH]c2c1` [Compound 1020-148, N-Cyclopentyl-6-(3,5-dimethylisoxazol-4-yl)-2-(2,2,2-trifluoroethylamino)-1H-benzo[d]imidazole-4-sulfonamide]: the EC50 is 495 nM.
